Assay results reported in PubChem BioAssay AID1259407 (Chemical Carcinogenesis Research Information System (CCRIS), 2018).
The source made the active and inactive calls. How the calls were made is not given here.

Test system: CCRIS mutagenicity, Ames/micronucleus/aberration tests
Experiment: CCRIS mutagenicity studies

## Nc1ccc(-c2ccc(N)cc2)cc1
End Point: IN VITRO CHROMOSOMAL ABERRATIONS, Test System: CHINESE HAMSTER OVARY CELLS, Metabolic Activation: NONE
  mutagenic call: inactive; negative
End Point: IN VITRO CHROMOSOMAL ABERRATIONS, Test System: CHINESE HAMSTER OVARY CELLS, Metabolic Activation: RAT, LIVER, S-9, AROCLOR 1254
  mutagenic call: active; positive
Test System: AMES SALMONELLA TYPHIMURIUM, Strain/Indicator: DJ400, Metabolic Activation: HUMAN, HEPATOMA CELLS, BENZO[A]ANTHRACENE, Method: PREINCUBATION
  mutagenic call: active; positive
Test System: AMES SALMONELLA TYPHIMURIUM, Strain/Indicator: DJ400, Metabolic Activation: HUMAN, HEPATOMA CELLS, Method: PREINCUBATION
  mutagenic call: active; positive
Test System: AMES SALMONELLA TYPHIMURIUM, Strain/Indicator: DJ400, Metabolic Activation: RAT, LIVER, S-9, AROCLOR 1254, Method: PREINCUBATION
  mutagenic call: active; positive
Test System: AMES SALMONELLA TYPHIMURIUM, Strain/Indicator: DJ400, Metabolic Activation: RAT, LIVER, S-9, Method: PREINCUBATION
  mutagenic call: active; positive
Test System: AMES SALMONELLA TYPHIMURIUM, Strain/Indicator: DJ400, Metabolic Activation: TOBACCO TX1 CELLS, Method: PREINCUBATION
  mutagenic call: inactive; negative
Test System: AMES SALMONELLA TYPHIMURIUM, Strain/Indicator: DJ460, Metabolic Activation: HUMAN, HEPATOMA CELLS, BENZO[A]ANTHRACENE, Method: PREINCUBATION
  mutagenic call: active; positive
Test System: AMES SALMONELLA TYPHIMURIUM, Strain/Indicator: DJ460, Metabolic Activation: HUMAN, HEPATOMA CELLS, Method: PREINCUBATION
  mutagenic call: active; positive
Test System: AMES SALMONELLA TYPHIMURIUM, Strain/Indicator: DJ460, Metabolic Activation: RAT, LIVER, S-9, AROCLOR 1254, Method: PREINCUBATION
  mutagenic call: active; positive
Test System: AMES SALMONELLA TYPHIMURIUM, Strain/Indicator: DJ460, Metabolic Activation: RAT, LIVER, S-9, Method: PREINCUBATION
  mutagenic call: active; positive
Test System: AMES SALMONELLA TYPHIMURIUM, Strain/Indicator: DJ460, Metabolic Activation: TOBACCO CELL-FREE EXTRACT, Method: PREINCUBATION
  mutagenic call: active; positive
Test System: AMES SALMONELLA TYPHIMURIUM, Strain/Indicator: DJ460, Metabolic Activation: TOBACCO TX1 CELLS, Method: PREINCUBATION
  mutagenic call: active; positive
Test System: AMES SALMONELLA TYPHIMURIUM, Strain/Indicator: MP110, Metabolic Activation: TOBACCO TX1 CELLS, Method: PREINCUBATION
  mutagenic call: inactive; negative
Test System: AMES SALMONELLA TYPHIMURIUM, Strain/Indicator: MP120, Metabolic Activation: TOBACCO TX1 CELLS, Method: PREINCUBATION
  mutagenic call: inactive; negative
Test System: AMES SALMONELLA TYPHIMURIUM, Strain/Indicator: MP208, Metabolic Activation: TOBACCO CELL-FREE TXIMX, Method: PREINCUBATION
  mutagenic call: active; positive
Test System: AMES SALMONELLA TYPHIMURIUM, Strain/Indicator: MP219, Metabolic Activation: TOBACCO CELL-FREE TXIMX, Method: PREINCUBATION
  mutagenic call: active; positive
Test System: AMES SALMONELLA TYPHIMURIUM, Strain/Indicator: SV50, Metabolic Activation: HAMSTER, LIVER, S-9, Method: STANDARD PLATE
  mutagenic call: inactive; negative
Test System: AMES SALMONELLA TYPHIMURIUM, Strain/Indicator: SV50, Metabolic Activation: NONE, Method: PREINCUBATION (PRIVAL METHOD)
  mutagenic call: active; positive
Test System: AMES SALMONELLA TYPHIMURIUM, Strain/Indicator: SV50, Metabolic Activation: RAT, LIVER, S-9, AROCLOR 1254, Method: STANDARD PLATE
  mutagenic call: inactive; negative
Test System: AMES SALMONELLA TYPHIMURIUM, Strain/Indicator: TA98(1,8-DNP6), Metabolic Activation: NONE, Method: PREINCUBATION
  mutagenic call: inactive; negative
Test System: AMES SALMONELLA TYPHIMURIUM, Strain/Indicator: TA98(1,8-DNP6), Metabolic Activation: NONE, Method: STANDARD PLATE
  mutagenic call: inactive; negative
Test System: AMES SALMONELLA TYPHIMURIUM, Strain/Indicator: TA98(1,8-DNP6), Metabolic Activation: PLANT CELLS, Method: PREINCUBATION
  mutagenic call: active; positive
Test System: AMES SALMONELLA TYPHIMURIUM, Strain/Indicator: TA98(1,8-DNP6), Metabolic Activation: S-9, Method: STANDARD PLATE
  mutagenic call: inactive; negative
Test System: AMES SALMONELLA TYPHIMURIUM, Strain/Indicator: TA98(1,8-DNP6), Metabolic Activation: TOBACCO CELL-FREE TXIMX, Method: PREINCUBATION
  mutagenic call: inactive; negative
Test System: AMES SALMONELLA TYPHIMURIUM, Strain/Indicator: TA98(NR), Metabolic Activation: TOBACCO CELL-FREE TXIMX, Method: PREINCUBATION
  mutagenic call: active; positive
Test System: AMES SALMONELLA TYPHIMURIUM, Strain/Indicator: TA98, Metabolic Activation: HAMSTER, LIVER, S-9, Method: PREINCUBATION
  mutagenic call: active; positive
Test System: AMES SALMONELLA TYPHIMURIUM, Strain/Indicator: TA98, Metabolic Activation: HAMSTER, LIVER, S-9, Method: PREINCUBATION (PRIVAL METHOD)
  mutagenic call: active; positive
Test System: AMES SALMONELLA TYPHIMURIUM, Strain/Indicator: TA98, Metabolic Activation: HAMSTER, LIVER, S-9, Method: STANDARD PLATE
  mutagenic call: active; positive
Test System: AMES SALMONELLA TYPHIMURIUM, Strain/Indicator: TA98, Metabolic Activation: HUMAN, HEPATOMA CELLS, BENZO[A]ANTHRACENE, Method: PREINCUBATION
  mutagenic call: active; positive
Test System: AMES SALMONELLA TYPHIMURIUM, Strain/Indicator: TA98, Metabolic Activation: HUMAN, HEPATOMA CELLS, Method: PREINCUBATION
  mutagenic call: active; positive
Test System: AMES SALMONELLA TYPHIMURIUM, Strain/Indicator: TA98, Metabolic Activation: MOUSE, LIVER, S-9, Method: STANDARD PLATE
  mutagenic call: active; positive
Test System: AMES SALMONELLA TYPHIMURIUM, Strain/Indicator: TA98, Metabolic Activation: NONE, Method: PREINCUBATION
  mutagenic call: inactive; negative
Test System: AMES SALMONELLA TYPHIMURIUM, Strain/Indicator: TA98, Metabolic Activation: NONE, Method: STANDARD PLATE
  mutagenic call: inactive; negative
Test System: AMES SALMONELLA TYPHIMURIUM, Strain/Indicator: TA98, Metabolic Activation: PLANT CELLS, Method: PREINCUBATION
  mutagenic call: active; positive
Test System: AMES SALMONELLA TYPHIMURIUM, Strain/Indicator: TA98, Metabolic Activation: RAT LIVER S-9, AROCLOR 1254, Method: PREINCUBATION
  mutagenic call: active; positive
Test System: AMES SALMONELLA TYPHIMURIUM, Strain/Indicator: TA98, Metabolic Activation: RAT, BLADDER, S-9, PCB, Method: FLUCTUATION TEST
  mutagenic call: inactive; negative
Test System: AMES SALMONELLA TYPHIMURIUM, Strain/Indicator: TA98, Metabolic Activation: RAT, LIVER, S-9, AROCLOR 1254, Method: PREINCUBATION
  mutagenic call: active; positive
Test System: AMES SALMONELLA TYPHIMURIUM, Strain/Indicator: TA98, Metabolic Activation: RAT, LIVER, S-9, AROCLOR 1254, Method: STANDARD PLATE
  mutagenic call: active; positive
Test System: AMES SALMONELLA TYPHIMURIUM, Strain/Indicator: TA98, Metabolic Activation: RAT, LIVER, S-9, PHENOBARBITAL, Method: STANDARD PLATE
  mutagenic call: active; positive
Test System: AMES SALMONELLA TYPHIMURIUM, Strain/Indicator: TA98, Metabolic Activation: RAT, LIVER, S-9, Method: PREINCUBATION
  mutagenic call: active; positive
Test System: AMES SALMONELLA TYPHIMURIUM, Strain/Indicator: TA98, Metabolic Activation: S-9, Method: STANDARD PLATE
  mutagenic call: active; positive
Test System: AMES SALMONELLA TYPHIMURIUM, Strain/Indicator: TA98, Metabolic Activation: TOBACCO CELL-FREE TXIMX, Method: PREINCUBATION
  mutagenic call: active; positive
Test System: AMES SALMONELLA TYPHIMURIUM, Strain/Indicator: TA100(NR), Metabolic Activation: TOBACCO CELL-FREE TXIMX, Method: PREINCUBATION
  mutagenic call: inactive; negative
Test System: AMES SALMONELLA TYPHIMURIUM, Strain/Indicator: TA100(TN:OAT), Metabolic Activation: TOBACCO CELL-FREE TXIMX, Method: PREINCUBATION
  mutagenic call: inactive; negative
Test System: AMES SALMONELLA TYPHIMURIUM, Strain/Indicator: TA100, Metabolic Activation: HUMAN, LIVER, S-9, Method: STANDARD PLATE
  mutagenic call: active; positive
Test System: AMES SALMONELLA TYPHIMURIUM, Strain/Indicator: TA100, Metabolic Activation: NONE, Method: PREINCUBATION
  mutagenic call: inactive; negative
Test System: AMES SALMONELLA TYPHIMURIUM, Strain/Indicator: TA100, Metabolic Activation: NONE, Method: STANDARD PLATE
  mutagenic call: inactive; negative
Test System: AMES SALMONELLA TYPHIMURIUM, Strain/Indicator: TA100, Metabolic Activation: RAT LIVER S-9, AROCLOR 1254, Method: PREINCUBATION
  mutagenic call: inactive; negative
